This assay deals with differentiated 3T3-L1 mouse adipocyte cells. Kind of assay: Adipocyte glucose consumption in differentiated 3T3-L1 mouse adipocyte cells (loss of glucose from medium, colorimetric). The class given is cell-based. Conditions: compound 10 μM, 22 to 24 hours, differentiated 3T3-L1 adipocytes, compound/DMSO, read-out: Glucose consumption (fold change) Mean. As to the method:
Activity of compounds on adipocyte glucose consumption was tested in differentiated 3T3-L1 mouse adipocyte cells. 3T3-L1 preadipocytes (ATCC) were routinely cultured in a growth medium composed of DMEM high-glucose (Sigma), 10% FBS (Gibco), 10 U/ml penicillin and 10 μg/ml streptomycin (P/S; Gibco). To induce adipogenic differentiation, a confluent layer of 3T3-L1 cells were incubated with the growth medium containing 2 μM rosiglitazone, 1 μM dexamethasone, 500 μM IBMX, and 1 μg/ml insulin (Sigma). Forty-eight (48) hours later (on day 2) and on days 4 and 6, medium of the cells was replaced with fresh medium containing 1 μg/ml insulin. On days 8 and 10, the medium was refreshed with regular growth medium and addition of insulin was omitted. On day 11 or 12, medium of the cells were replaced with fresh medium containing either the indicated compounds (10 μM) or the vehicle in which the compounds were dissolved (DMSO). The final concentration of DMSO was 0.1% (v/v). Growth medium containing 0.1% DMSO was incubated in culture wells containing no cells and used as control. Twenty-two to 24 hours later, medium was harvested and subjected to centrifugation at 10,000 g for 5 min. Glucose concentration in the supernatants was determined using a colorimetric assay (Glucose Assay Kit I, Eton Biosciences). Glucose consumption in compound and vehicle treated cells was measured as loss of glucose from the culture medium and represented as mean fold change (compound/DMSO) t standard deviation (SD).
Turning to `CCCCCCC1CCCc2c(n(Cc3cccc(C(=O)O)c3)c3c(C(=O)O)cccc23)C1` (stereo not shown) [5-[(3-carboxyphenyl)methyl]-7-hexyl-5H,6H,7H,8H,9H,10H-cyclohepta[b]indole-4-carboxylic acid], the fold induction at 10 µM is 1.15.

On to `CCCCCCC1CCCc2c(n(Cc3cccc(Cl)c3)c3c(C(=O)O)cccc23)C1` (stereo not shown) [5-[(3-chlorophenyl)methyl]-7-hexyl-5H,6H,7H,8H,9H,10H-cyclohepta[b]indole-4-carboxylic acid], for which the fold induction at 10 µM is 1.18.

In the case of `CCCCCCC1CCCc2c(n(Cc3cccc(C#N)c3F)c3c(C(=O)O)cccc23)C1` (stereo not shown) [5-[(3-cyano-2-fluorophenyl)methyl]-7-hexyl-5H,6H,7H,8H,9H,10H-cyclohepta[b]indole-4-carboxylic acid], the fold induction at 10 µM came to 1.36.

Take `CCCCCCC1CCCc2c(n(Cc3cccc(C#N)c3)c3c(C(=O)O)cc(F)cc23)C1` (stereo not shown) [5-[(3-cyanophenyl)methyl]-2-fluoro-7-hexyl-5H,6H,7H,8H,9H,10H-cyclohepta[b]indole-4-carboxylic acid]: the fold induction at 10 µM is 1.33.

For the compound `N#Cc1cccc(Cn2c3c(c4cccc(C(=O)O)c42)CCCC(CCc2ccccc2)C3)c1` (stereo not shown) [5-[(3-cyanophenyl)methyl]-7-(2-phenylethyl)-5H,6H,7H,8H,9H,10H-cyclohepta[b]indole-4-carboxylic acid], the fold induction at 10 µM is 1.02.

In the case of `CCC1CCCc2c(n(Cc3cccc(C#N)c3)c3c(C(=O)O)cccc23)C1` (stereo not shown) [5-[(3-cyanophenyl)methyl]-7-ethyl-5H,6H,7H,8H,9H,10H-cyclohepta[b]indole-4-carboxylic acid], the fold induction at 10 µM was 1.16.

Take `CCCCCCC1CCCc2c(n(Cc3cccc(C#N)c3)c3c(C(=O)O)cccc23)C1` (stereo not shown) [5-[(3-cyanophenyl)methyl]-7-hexyl-5H,6H,7H,8H,9H,10H-cyclohepta[b]indole-4-carboxylic acid]: the fold induction at 10 µM stood at 1.26.

Consider `CCCCCCCCC1CCCc2c(n(Cc3cccc(C#N)c3)c3c(C(=O)O)cccc23)C1` (stereo not shown) [5-[(3-cyanophenyl)methyl]-7-octyl-5H,6H,7H,8H,9H,10H-cyclohepta[b]indole-4-carboxylic acid], for which the fold induction at 10 µM was 1.12.

For `CCCCCC1CCCc2c(n(Cc3cccc(C#N)c3)c3c(C(=O)O)cccc23)C1` (stereo not shown) [5-[(3-cyanophenyl)methyl]-7-pentyl-5H,6H,7H,8H,9H,10H-cyclohepta[b]indole-4-carboxylic acid], the fold induction at 10 µM amounted to 1.35.

For the compound `CCC1CCCCc2c1c1cccc(C(=O)O)c1n2Cc1cccc(C#N)c1` (stereo not shown) [5-[(3-cyanophenyl)methyl]-10-ethyl-5H,6H,7H,8H,9H,10H-cyclohepta[b]indole-4-carboxylic acid], the fold induction at 10 µM is 1.15.

Take `CCCCCC1CCCCc2c1c1cccc(C(=O)O)c1n2Cc1cccc(C#N)c1` (stereo not shown) [5-[(3-cyanophenyl)methyl]-10-pentyl-5H,6H,7H,8H,9H,10H-cyclohepta[b]indole-4-carboxylic acid]: the fold induction at 10 µM was 1.2.

As to `CCCC1CCCCc2c1c1cccc(C(=O)O)c1n2Cc1cccc(C#N)c1` (stereo not shown) [5-[(3-cyanophenyl)methyl]-10-propyl-5H,6H,7H,8H,9H,10H-cyclohepta[b]indole-4-carboxylic acid], the fold induction at 10 µM was 1.18.

Regarding `CCCCCCC1CCCc2c(n(Cc3cccc(F)c3)c3c(C(=O)O)cccc23)C1` (stereo not shown) [5-[(3-fluorophenyl)methyl]-7-hexyl-5H,6H,7H,8H,9H,10H-cyclohepta[b]indole-4-carboxylic acid], the fold induction at 10 µM worked out at 1.14.

In the case of `CCCCCCC1CCCc2c(n(Cc3ccc(C(N)=O)cc3)c3c(C(=O)O)cccc23)C1` (stereo not shown) [5-[(4-carbamoylphenyl)methyl]-7-hexyl-5H,6H,7H,8H,9H,10H-cyclohepta[b]indole-4-carboxylic acid], the fold induction at 10 µM was 1.05.

Consider `CCCCCCC1CCCc2c(n(Cc3ccc(C#N)cc3)c3c(C(=O)O)cccc23)C1` (stereo not shown) [5-[(4-cyanophenyl)methyl]-7-hexyl-5H,6H,7H,8H,9H,10H-cyclohepta[b]indole-4-carboxylic acid], for which the fold induction at 10 µM turned out to be 0.94.

With `CCCCCCC1CCCc2c(n(Cc3ccc(F)cc3)c3c(C(=O)O)cccc23)C1` (stereo not shown) [5-[(4-fluorophenyl)methyl]-7-hexyl-5H,6H,7H,8H,9H,10H-cyclohepta[b]indole-4-carboxylic acid], the fold induction at 10 µM was found to be 1.17.

For `CCCCCCC1CCCc2c(n(Cc3ccc(C#N)o3)c3c(C(=O)O)cccc23)C1` (stereo not shown) [5-[(5-cyanofuran-2-yl)methyl]-7-hexyl-5H,6H,7H,8H,9H,10H-cyclohepta[b]indole-4-carboxylic acid], the fold induction at 10 µM was 1.29.

Take `CCCCCCC1CCCc2c(n(Cc3cncc(C#N)c3)c3c(C(=O)O)cccc23)C1` (stereo not shown) [5-[(5-cyanopyridin-3-yl)methyl]-7-hexyl-5H,6H,7H,8H,9H,10H-cyclohepta[b]indole-4-carboxylic acid]: the fold induction at 10 µM is 1.06.

On to `CCCCCCC1CCCc2c(n(Cc3ccc(C#N)s3)c3c(C(=O)O)cccc23)C1` (stereo not shown) [5-[(5-cyanothiophen-2-yl)methyl]-7-hexyl-5H,6H,7H,8H,9H,10H-cyclohepta[b]indole-4-carboxylic acid], for which the fold induction at 10 µM was 1.05.

For `CCCCCCC1CCCc2c(n(Cc3csc(C#N)c3)c3c(C(=O)O)cccc23)C1` (stereo not shown) [5-[(5-cyanothiophen-3-yl)methyl]-7-hexyl-5H,6H,7H,8H,9H,10H-cyclohepta[b]indole-4-carboxylic acid], the fold induction at 10 µM turned out to be 1.2.

As to `CCCCCCC1CCCc2c(n(Cc3cccc(C(N)=O)n3)c3c(C(=O)O)cccc23)C1` (stereo not shown) [5-[(6-carbamoylpyridin-2-yl)methyl]-7-hexyl-5H,6H,7H,8H,9H,10H-cyclohepta[b]indole-4-carboxylic acid], the fold induction at 10 µM was found to be 1.23.

As for `CCCCCCC1CCCc2c(n(Cc3cccc(C#N)n3)c3c(C(=O)O)cccc23)C1` (stereo not shown) [5-[(6-cyanopyridin-2-yl)methyl]-7-hexyl-5H,6H,7H,8H,9H,10H-cyclohepta[b]indole-4-carboxylic acid], the fold induction at 10 µM was found to be 1.28.

For the compound `CCCCCCC1CCCc2c(n(Cc3cccc(F)n3)c3c(C(=O)O)cccc23)C1` (stereo not shown) [5-[(6-fluoropyridin-2-yl)methyl]-7-hexyl-5H,6H,7H,8H,9H,10H-cyclohepta[b]indole-4-carboxylic acid], the fold induction at 10 µM worked out at 1.25.

With `CCCCCCC1CCCc2c(n(Cc3cccc(C(=O)O)n3)c3c(C(=O)O)cccc23)C1` (stereo not shown) [6-({4-carboxy-7-hexyl-5H,6H,7H,8H,9H,10H-cyclohepta[b]indol-5-yl}methyl)pyridine-2-carboxylic acid], the fold induction at 10 µM is 0.96.

`CCCCC1CCCCc2c1n(Cc1cccc(C(N)=O)c1)c1c(C(=O)O)cccc21` (stereo not shown) [6-butyl-5-[(3-carbamoylphenyl)methyl]-5H,6H,7H,8H,9H,10H-cyclohepta[b]indole-4-carboxylic acid]: the fold induction at 10 µM amounted to 1.03.

With `CCCCC1CCCCc2c1n(Cc1cccc(C#N)c1)c1c(C(=O)O)cccc21` (stereo not shown) [6-butyl-5-[(3-cyanophenyl)methyl]-5H,6H,7H,8H,9H,10H-cyclohepta[b]indole-4-carboxylic acid], the fold induction at 10 µM was found to be 1.16.

With `CCCCC1CCCc2c(n(Cc3ccccc3C(N)=O)c3c(C(=O)O)cccc23)C1` (stereo not shown) [7-butyl-5-[(2-carbamoylphenyl)methyl]-5H,6H,7H,8H,9H,10H-cyclohepta[b]indole-4-carboxylic acid], the fold induction at 10 µM stood at 1.11.

Regarding `CCCCC1CCCc2c(n(Cc3ccccc3C#N)c3c(C(=O)O)cccc23)C1` (stereo not shown) [7-butyl-5-[(2-cyanophenyl)methyl]-5H,6H,7H,8H,9H,10H-cyclohepta[b]indole-4-carboxylic acid], the fold induction at 10 µM was found to be 1.1.

With `CCCCC1CCCc2c(n(Cc3ccccc3F)c3c(C(=O)O)cccc23)C1` (stereo not shown) [7-butyl-5-[(2-fluorophenyl)methyl]-5H,6H,7H,8H,9H,10H-cyclohepta[b]indole-4-carboxylic acid], the fold induction at 10 µM was 1.11.

Consider `CCCCC1CCCc2c(n(Cc3ccccc3C)c3c(C(=O)O)cccc23)C1` (stereo not shown) [7-butyl-5-[(2-methylphenyl)methyl]-5H,6H,7H,8H,9H,10H-cyclohepta[b]indole-4-carboxylic acid], for which the fold induction at 10 µM is 1.12.

In the case of `CCCCC1CCCc2c(n(Cc3cccc(C(N)=O)c3)c3c(C(=O)O)cccc23)C1` (stereo not shown) [7-butyl-5-[(3-carbamoylphenyl)methyl]-5H,6H,7H,8H,9H,10H-cyclohepta[b]indole-4-carboxylic acid], the fold induction at 10 µM was found to be 1.12.

Take `CCCCC1CCCc2c(n(Cc3cccc(C(N)=O)c3)c3c(C(=O)NCCO)cccc23)C1` (stereo not shown) [7-butyl-5-[(3-carbamoylphenyl)methyl]-N-(2-hydroxyethyl)-5H,6H,7H,8H,9H,10H-cyclohepta[b]indole-4-carboxamide]: the fold induction at 10 µM is 0.98.

For the compound `CCCCC1CCCc2c(n(Cc3cccc(C(=O)O)c3)c3c(C(=O)O)cccc23)C1` (stereo not shown) [7-butyl-5-[(3-carboxyphenyl)methyl]-5H,6H,7H,8H,9H,10H-cyclohepta[b]indole-4-carboxylic acid], the fold induction at 10 µM turned out to be 0.95.

On to `CCCCC1CCCc2c(n(Cc3cccc(Cl)c3)c3c(C(=O)O)cccc23)C1` (stereo not shown) [7-butyl-5-[(3-chlorophenyl)methyl]-5H,6H,7H,8H,9H,10H-cyclohepta[b]indole-4-carboxylic acid], for which the fold induction at 10 µM came out at 1.18.

These data come from US20230331673A1, “COMPOSITION OF COMPOUNDS THAT MODULATE CELL METABOLISM AND METHODS OF USE” (CRESCENTA BIOSCIENCES, priority 2020, published 2023).
